Data taken from patent publication US20100137449A1, “SUBSTITUTED 1,3-CYCLOPENTADIONE MULTI-TARGET PROTEIN KINASE MODULATORS OF CANCER, ANGIOGENESIS AND THE INFLAMMATORY PATHWAYS ASSOCIATED THEREWITH” (METAPROTEOMICS, LLC, priority 2007, published 2010).

Experiments:
Assay in all cases: KinaseProfiler Assay
CHK2(I157T)(h) = CHK2(I157T)(h) (Homo sapiens, UniProt O96017, I157T)
cKit(D816H)(h) = cKit(D816H)(h) (Homo sapiens, UniProt P10721, D816H)
EphB4(h) = target: T1, EphB4(h) (Homo sapiens, UniProt P54760)
T1 sequence (P54760 16-987): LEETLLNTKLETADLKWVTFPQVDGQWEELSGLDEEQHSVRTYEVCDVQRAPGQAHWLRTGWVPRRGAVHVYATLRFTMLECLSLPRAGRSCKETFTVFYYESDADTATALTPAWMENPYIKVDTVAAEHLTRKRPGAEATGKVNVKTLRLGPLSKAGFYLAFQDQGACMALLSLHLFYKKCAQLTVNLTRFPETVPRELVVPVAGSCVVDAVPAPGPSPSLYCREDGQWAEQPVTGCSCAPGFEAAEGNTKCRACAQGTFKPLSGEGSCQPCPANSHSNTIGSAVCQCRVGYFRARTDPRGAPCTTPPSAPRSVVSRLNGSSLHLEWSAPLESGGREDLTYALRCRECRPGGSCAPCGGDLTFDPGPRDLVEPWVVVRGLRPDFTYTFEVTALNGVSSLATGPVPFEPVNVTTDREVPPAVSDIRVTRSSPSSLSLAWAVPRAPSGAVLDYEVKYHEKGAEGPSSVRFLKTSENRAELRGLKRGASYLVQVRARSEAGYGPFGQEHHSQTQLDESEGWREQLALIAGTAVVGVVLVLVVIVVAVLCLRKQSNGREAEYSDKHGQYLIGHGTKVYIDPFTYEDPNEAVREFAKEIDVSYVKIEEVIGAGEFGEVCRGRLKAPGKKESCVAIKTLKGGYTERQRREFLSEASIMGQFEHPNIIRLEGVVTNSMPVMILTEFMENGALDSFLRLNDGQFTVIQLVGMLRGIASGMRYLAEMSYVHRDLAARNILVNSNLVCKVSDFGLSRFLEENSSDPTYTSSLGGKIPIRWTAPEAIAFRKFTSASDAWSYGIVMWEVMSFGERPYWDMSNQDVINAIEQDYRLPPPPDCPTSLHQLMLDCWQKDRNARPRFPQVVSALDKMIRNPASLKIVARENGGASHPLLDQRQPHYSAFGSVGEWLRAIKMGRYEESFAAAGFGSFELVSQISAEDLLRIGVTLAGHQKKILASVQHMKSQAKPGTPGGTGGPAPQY

FGFR2(N549H)(h) = FGFR2(N549H)(h) (Homo sapiens, UniProt P21802, N549H)
GSK3β(h) = GSK3β(h) (Homo sapiens, UniProt P49841)
IRAK1(h) = IRAK1(h) (Homo sapiens, UniProt P51617)
NEK3(h) = target: T2, NEK3(h) (Homo sapiens, UniProt P51956)
T2 sequence (P51956 1-506): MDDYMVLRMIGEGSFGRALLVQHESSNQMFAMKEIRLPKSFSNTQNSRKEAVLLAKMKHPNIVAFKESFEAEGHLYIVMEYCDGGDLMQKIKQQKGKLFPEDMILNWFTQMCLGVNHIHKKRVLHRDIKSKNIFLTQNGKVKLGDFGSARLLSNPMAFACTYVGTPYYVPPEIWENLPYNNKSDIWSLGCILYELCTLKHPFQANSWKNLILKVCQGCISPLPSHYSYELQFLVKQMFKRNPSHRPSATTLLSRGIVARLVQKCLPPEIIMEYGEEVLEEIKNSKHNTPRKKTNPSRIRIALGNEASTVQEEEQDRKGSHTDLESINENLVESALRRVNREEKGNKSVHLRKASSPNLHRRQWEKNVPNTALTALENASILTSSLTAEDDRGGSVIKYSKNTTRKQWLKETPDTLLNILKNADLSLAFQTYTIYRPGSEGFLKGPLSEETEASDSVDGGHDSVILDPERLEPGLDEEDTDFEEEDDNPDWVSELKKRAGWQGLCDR

Pim-2(h) = Pim-2(h) (Homo sapiens, UniProt Q9P1W9)
PKBα(h) = PKBα(h) (Homo sapiens, UniProt P31749)
PKBγ(h) = PKBγ(h) (Homo sapiens, UniProt Q9Y243)
PKCδ(h) = PKCδ(h) (Homo sapiens, UniProt Q05655)
Sequence of PKCδ(h) (Q05655 whole entry): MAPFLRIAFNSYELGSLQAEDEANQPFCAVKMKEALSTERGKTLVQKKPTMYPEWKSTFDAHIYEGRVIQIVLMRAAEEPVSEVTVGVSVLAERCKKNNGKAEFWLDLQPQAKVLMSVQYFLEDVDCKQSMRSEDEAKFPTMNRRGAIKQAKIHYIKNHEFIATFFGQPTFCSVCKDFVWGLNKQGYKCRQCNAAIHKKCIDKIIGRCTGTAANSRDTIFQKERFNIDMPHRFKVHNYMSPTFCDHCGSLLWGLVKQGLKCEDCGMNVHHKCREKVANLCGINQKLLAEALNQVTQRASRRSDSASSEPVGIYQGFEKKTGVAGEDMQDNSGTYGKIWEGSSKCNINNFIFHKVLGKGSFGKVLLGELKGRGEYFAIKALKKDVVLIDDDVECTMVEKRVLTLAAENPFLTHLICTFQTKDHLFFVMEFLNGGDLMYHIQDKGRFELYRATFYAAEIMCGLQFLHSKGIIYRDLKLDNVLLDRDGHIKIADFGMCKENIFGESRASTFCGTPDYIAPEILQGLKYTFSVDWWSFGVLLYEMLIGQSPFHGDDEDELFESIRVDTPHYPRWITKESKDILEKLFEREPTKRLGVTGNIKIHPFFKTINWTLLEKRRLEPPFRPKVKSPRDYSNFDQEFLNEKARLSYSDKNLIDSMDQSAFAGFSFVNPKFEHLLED

Sequence of FGFR2(N549H)(h) (P21802 22-821 N549H): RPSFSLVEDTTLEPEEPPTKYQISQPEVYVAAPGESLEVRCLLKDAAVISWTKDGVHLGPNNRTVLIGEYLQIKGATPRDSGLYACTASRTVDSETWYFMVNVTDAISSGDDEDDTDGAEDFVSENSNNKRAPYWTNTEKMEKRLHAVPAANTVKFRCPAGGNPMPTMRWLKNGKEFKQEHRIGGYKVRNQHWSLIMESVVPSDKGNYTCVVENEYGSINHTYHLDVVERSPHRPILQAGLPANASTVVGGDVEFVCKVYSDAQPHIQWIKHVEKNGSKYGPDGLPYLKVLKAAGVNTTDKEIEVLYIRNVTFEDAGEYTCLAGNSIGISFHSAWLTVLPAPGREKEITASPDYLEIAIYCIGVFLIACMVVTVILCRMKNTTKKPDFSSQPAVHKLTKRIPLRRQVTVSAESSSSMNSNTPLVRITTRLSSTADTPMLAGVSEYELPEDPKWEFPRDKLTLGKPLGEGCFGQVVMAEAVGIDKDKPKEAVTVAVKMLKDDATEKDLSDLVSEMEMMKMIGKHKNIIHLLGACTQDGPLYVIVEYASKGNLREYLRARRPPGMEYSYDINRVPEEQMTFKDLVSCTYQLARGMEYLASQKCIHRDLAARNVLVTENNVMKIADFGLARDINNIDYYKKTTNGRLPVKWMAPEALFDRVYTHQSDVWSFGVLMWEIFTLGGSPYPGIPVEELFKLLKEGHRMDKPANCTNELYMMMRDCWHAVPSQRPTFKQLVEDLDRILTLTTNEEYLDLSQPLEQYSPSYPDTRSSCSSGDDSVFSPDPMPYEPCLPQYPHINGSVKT
Sequence of IRAK1(h) (P51617 whole entry): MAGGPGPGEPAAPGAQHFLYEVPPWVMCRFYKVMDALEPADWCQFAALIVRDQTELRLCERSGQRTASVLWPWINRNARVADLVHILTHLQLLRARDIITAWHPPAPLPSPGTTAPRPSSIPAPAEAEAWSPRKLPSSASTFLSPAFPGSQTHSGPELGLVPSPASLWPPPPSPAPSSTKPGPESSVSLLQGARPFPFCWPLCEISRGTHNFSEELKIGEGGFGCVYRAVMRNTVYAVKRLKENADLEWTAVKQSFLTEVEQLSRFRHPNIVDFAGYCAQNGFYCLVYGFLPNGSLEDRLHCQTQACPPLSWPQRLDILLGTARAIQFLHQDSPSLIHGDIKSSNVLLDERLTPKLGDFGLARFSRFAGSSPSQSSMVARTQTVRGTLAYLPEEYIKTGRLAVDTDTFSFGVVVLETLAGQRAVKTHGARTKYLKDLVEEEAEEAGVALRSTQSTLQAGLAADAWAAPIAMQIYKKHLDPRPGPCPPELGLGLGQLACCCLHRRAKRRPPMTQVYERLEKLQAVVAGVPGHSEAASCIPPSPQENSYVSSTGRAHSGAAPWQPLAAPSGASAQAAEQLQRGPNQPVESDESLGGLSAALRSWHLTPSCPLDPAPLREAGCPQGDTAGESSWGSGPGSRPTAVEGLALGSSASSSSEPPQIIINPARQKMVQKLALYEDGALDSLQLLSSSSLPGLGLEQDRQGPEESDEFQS
Sequence of GSK3β(h) (P49841 whole entry): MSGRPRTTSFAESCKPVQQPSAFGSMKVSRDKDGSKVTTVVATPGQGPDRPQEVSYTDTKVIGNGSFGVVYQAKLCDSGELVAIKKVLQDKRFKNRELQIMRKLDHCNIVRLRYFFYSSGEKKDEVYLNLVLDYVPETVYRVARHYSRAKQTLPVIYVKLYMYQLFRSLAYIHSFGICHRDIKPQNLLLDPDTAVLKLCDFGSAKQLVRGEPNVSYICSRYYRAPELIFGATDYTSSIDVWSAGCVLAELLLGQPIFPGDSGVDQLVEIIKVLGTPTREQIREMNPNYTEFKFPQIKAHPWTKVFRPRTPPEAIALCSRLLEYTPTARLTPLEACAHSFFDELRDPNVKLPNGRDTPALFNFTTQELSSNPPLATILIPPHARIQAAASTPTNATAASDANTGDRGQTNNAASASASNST
Sequence of PKBα(h) (P31749 whole entry): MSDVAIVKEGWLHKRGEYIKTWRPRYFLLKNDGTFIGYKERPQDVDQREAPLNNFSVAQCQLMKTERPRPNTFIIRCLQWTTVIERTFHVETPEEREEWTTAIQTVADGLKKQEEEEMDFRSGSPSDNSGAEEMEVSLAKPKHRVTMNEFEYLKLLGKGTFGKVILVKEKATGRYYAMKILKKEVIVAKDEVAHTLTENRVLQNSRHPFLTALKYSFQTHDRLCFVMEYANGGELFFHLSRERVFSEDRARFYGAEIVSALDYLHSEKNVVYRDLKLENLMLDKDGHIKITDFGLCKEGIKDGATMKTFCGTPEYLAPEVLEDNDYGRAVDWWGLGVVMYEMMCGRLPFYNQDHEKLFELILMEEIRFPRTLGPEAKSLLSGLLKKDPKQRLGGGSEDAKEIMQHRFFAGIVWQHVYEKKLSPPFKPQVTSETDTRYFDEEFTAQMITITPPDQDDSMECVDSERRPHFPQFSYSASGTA
Sequence of cKit(D816H)(h) (P10721 26-976 D816H): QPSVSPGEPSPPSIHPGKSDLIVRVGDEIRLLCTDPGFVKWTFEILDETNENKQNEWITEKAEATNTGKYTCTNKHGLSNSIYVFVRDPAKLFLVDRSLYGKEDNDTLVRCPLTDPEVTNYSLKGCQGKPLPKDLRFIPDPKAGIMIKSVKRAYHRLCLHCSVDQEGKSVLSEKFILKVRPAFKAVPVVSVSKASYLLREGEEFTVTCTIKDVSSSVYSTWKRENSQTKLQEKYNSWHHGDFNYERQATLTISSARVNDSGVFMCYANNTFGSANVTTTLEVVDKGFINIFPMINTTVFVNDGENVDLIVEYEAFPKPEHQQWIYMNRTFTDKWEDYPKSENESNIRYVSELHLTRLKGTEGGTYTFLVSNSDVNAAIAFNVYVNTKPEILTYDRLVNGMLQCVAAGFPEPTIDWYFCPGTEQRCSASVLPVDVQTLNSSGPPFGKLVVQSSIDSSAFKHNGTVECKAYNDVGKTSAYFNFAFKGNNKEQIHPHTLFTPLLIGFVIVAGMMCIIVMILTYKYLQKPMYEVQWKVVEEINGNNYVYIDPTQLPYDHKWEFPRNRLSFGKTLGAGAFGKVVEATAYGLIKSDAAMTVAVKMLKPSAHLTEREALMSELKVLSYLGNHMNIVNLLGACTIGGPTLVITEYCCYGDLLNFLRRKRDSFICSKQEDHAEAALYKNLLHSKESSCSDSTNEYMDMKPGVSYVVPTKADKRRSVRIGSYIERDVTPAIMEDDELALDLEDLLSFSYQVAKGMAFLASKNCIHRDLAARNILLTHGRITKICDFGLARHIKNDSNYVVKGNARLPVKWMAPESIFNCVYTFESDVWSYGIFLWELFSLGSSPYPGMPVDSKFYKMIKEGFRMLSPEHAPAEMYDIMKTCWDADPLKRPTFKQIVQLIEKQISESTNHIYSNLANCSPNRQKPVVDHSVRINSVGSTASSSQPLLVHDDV
Sequence of Pim-2(h) (Q9P1W9 whole entry): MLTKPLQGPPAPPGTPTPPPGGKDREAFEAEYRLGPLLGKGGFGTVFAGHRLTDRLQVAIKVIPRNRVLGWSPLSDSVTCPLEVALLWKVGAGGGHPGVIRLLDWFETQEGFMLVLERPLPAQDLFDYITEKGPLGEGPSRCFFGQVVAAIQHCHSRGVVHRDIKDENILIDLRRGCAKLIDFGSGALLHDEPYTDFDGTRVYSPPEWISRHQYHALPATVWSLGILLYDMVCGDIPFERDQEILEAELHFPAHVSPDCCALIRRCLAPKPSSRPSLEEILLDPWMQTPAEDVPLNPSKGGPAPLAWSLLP
Sequence of PKBγ(h) (Q9Y243 whole entry): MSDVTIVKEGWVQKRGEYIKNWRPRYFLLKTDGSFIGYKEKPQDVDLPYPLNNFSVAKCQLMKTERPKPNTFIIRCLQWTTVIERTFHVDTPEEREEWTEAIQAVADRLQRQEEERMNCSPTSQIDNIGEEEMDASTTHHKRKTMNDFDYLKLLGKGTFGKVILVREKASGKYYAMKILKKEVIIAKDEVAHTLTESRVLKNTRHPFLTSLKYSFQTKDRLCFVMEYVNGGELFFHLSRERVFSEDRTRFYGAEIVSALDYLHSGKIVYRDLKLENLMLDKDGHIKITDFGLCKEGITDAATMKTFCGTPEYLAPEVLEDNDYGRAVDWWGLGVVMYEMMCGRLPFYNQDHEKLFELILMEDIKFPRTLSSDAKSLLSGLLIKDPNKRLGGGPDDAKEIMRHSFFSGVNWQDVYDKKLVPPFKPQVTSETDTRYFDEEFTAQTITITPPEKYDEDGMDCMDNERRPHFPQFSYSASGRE

SMILES: CC(C)CCC(=O)[C@]1(O)C(O)=C(C(=O)C(C)C)C(=O)[C@H]1CCC(C)C [TH2, tetrahydroiso-cohumulone]
- kinase inhibition (CHK2(I157T)(h); 1 μg/ml): 108% of control
- kinase inhibition (CHK2(I157T)(h); 5 μg/ml): 104% of control
- kinase inhibition (CHK2(I157T)(h); 25 μg/ml): 94% of control
- kinase inhibition (CHK2(I157T)(h); 50 μg/ml): 83% of control
- kinase inhibition (CHK2(I157T)(h); 100 μg/ml): 74% of control
- kinase inhibition (cKit(D816H)(h); 1 μg/ml): 123% of control
- kinase inhibition (cKit(D816H)(h); 5 μg/ml): 116% of control
- kinase inhibition (cKit(D816H)(h); 25 μg/ml): 104% of control
- kinase inhibition (cKit(D816H)(h); 50 μg/ml): 114% of control
- kinase inhibition (cKit(D816H)(h); 100 μg/ml): 108% of control
- kinase inhibition (EphB4(h); 1 μg/ml): 106% of control
- kinase inhibition (EphB4(h); 5 μg/ml): 112% of control
- kinase inhibition (EphB4(h); 25 μg/ml): 116% of control
- kinase inhibition (EphB4(h); 50 μg/ml): 109% of control
- kinase inhibition (EphB4(h); 100 μg/ml): 98% of control
- kinase inhibition (FGFR2(N549H)(h); 1 μg/ml): 110% of control
- kinase inhibition (FGFR2(N549H)(h); 5 μg/ml): 102% of control
- kinase inhibition (FGFR2(N549H)(h); 25 μg/ml): 103% of control
- kinase inhibition (FGFR2(N549H)(h); 50 μg/ml): 103% of control
- kinase inhibition (FGFR2(N549H)(h); 100 μg/ml): 82% of control
- kinase inhibition (GSK3β(h); 1 μg/ml): 98% of control
- kinase inhibition (GSK3β(h); 5 μg/ml): 86% of control
- kinase inhibition (GSK3β(h); 25 μg/ml): 55% of control
- kinase inhibition (GSK3β(h); 50 μg/ml): 44% of control
- kinase inhibition (GSK3β(h); 100 μg/ml): 40% of control
- kinase inhibition (IRAK1(h); 1 μg/ml): 99% of control
- kinase inhibition (IRAK1(h); 5 μg/ml): 112% of control
- kinase inhibition (IRAK1(h); 25 μg/ml): 37% of control
- kinase inhibition (IRAK1(h); 50 μg/ml): 39% of control
- kinase inhibition (IRAK1(h); 100 μg/ml): 39% of control
- kinase inhibition (NEK3(h); 1 μg/ml): 99% of control
- kinase inhibition (NEK3(h); 5 μg/ml): 102% of control
- kinase inhibition (NEK3(h); 25 μg/ml): 97% of control
- kinase inhibition (NEK3(h); 50 μg/ml): 94% of control
- kinase inhibition (NEK3(h); 100 μg/ml): 92% of control
- kinase inhibition (Pim-2(h); 1 μg/ml): 103% of control
- kinase inhibition (Pim-2(h); 5 μg/ml): 111% of control
- kinase inhibition (Pim-2(h); 25 μg/ml): 77% of control
- kinase inhibition (Pim-2(h); 50 μg/ml): 73% of control
- kinase inhibition (Pim-2(h); 100 μg/ml): 67% of control
- kinase inhibition (PKBα(h); 1 μg/ml): 123% of control
- kinase inhibition (PKBα(h); 5 μg/ml): 130% of control
- kinase inhibition (PKBα(h); 25 μg/ml): 126% of control
- kinase inhibition (PKBα(h); 50 μg/ml): 118% of control
- kinase inhibition (PKBα(h); 100 μg/ml): 79% of control
- kinase inhibition (PKBγ(h); 1 μg/ml): 112% of control
- kinase inhibition (PKBγ(h); 5 μg/ml): 110% of control
- kinase inhibition (PKBγ(h); 25 μg/ml): 107% of control
- kinase inhibition (PKBγ(h); 50 μg/ml): 97% of control
- kinase inhibition (PKBγ(h); 100 μg/ml): 83% of control
- kinase inhibition (PKCδ(h); 1 μg/ml): 111% of control
- kinase inhibition (PKCδ(h); 5 μg/ml): 110% of control
- kinase inhibition (PKCδ(h); 25 μg/ml): 97% of control
- kinase inhibition (PKCδ(h); 50 μg/ml): 92% of control
- kinase inhibition (PKCδ(h); 100 μg/ml): 80% of control
